Columns and labels:
His-YTHDF1 (361-559) = molecular target: T1, His-YTHDF1 (361-559) (Homo sapiens, UniProt Q9BYJ9); experiment: AlphaScreen competition assay against non-biotinylated m6A-containing mRNA; format: binding
T1 construct: made in house; host or cells: E. coli BL21 (DE3)
T1 sequence (Q9BYJ9 with tags, fused parts or gaps): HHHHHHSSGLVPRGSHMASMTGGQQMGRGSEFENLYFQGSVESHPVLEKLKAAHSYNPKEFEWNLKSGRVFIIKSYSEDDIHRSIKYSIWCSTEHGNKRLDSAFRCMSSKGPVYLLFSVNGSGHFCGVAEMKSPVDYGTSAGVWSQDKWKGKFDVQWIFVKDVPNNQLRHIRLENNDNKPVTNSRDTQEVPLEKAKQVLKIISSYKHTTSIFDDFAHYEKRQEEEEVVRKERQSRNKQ
Protocol: 200 nM His-YTHDF1 (361-559) was incubated with non-biotinylated m^6A-containing mRNA at 4° C. for 10 minutes. […] Next, 20 nM biotinylated m^6A-containing mRNA and two kinds of beads were added in subdued light and incubated at 4° C. for 1 hour before detection.
A competitive binding experiment was performed against fixed concentrations of non-biotinylated m^6A-containing mRNA, based on AlphaScreen assay, using 200 nM YTHDF1 and 20 nM biotinylated m^6A-containing mRNA.

YTHDF1 mutant N378A = molecular target: T2, YTHDF1 mutant N378A (Homo sapiens, UniProt Q9BYJ9, N378A); experiment: FP assay with YTHDF1 mutant N378A; format: binding
T2 construct: GST (N, cleaved yes); made in house; host or cells: E. coli BL21 (DE3)
Protocol: The protein YTHDF1 (361-559) (SEQ ID NO: 2) and its mutants (SEQ ID NOs: 4-13) were cloned into pGEx-6P-1 vector (obtained from YouBio Co, Ltd, Catalog NO: VT1258), and the His-YTHDF1 (361-559) (SEQ ID NO: 3) used in AlphaScreen Assay was cloned into modified pET28a vector (obtained from YouBio Co, Ltd, Catalog NO: VT1207). The vectors were transformed into E. coli BL21 (DE3) cells and cultured at 37° C. When OD value reached 0.6˜0.8, 1 mM Isopropyl-β-D-thiogalactopyranoside was added to overexpress the protein at 16° C. overnight. […] Then, the proteins were further purified via cation exchange (HiTrap SP, GE Healthcare) and finally through a Superdex 75 10/300 column (GE Healthcare). At last, the purified YTHDF1(361-559) and the mutants were kept in buffer which contains 20 mM Hepes (pH 7.4) and 200 mM NaCl. For His-YTHDF1 (361-559), the protein was purified via Ni-NTA chromatography (HisTrap FF, GE Healthcare), followed by cation exchange and Superdex 75 10/300 column in sequence. And the obtained protein was kept in the buffer with the same ingredients.
All of the YTHDF1 (361-559), the 5′-FAM labeled m^6A-containing mRNA (5′-FAM-[…] (m^6A) CUGUG-3′, SEQ ID NO: 14) and the candidate compounds were diluted with assay buffer (20 mM Hepes (pH 7.4), 50 mM NaCl, 0.01% (v/v) tween 20, 5% (v/v) glycerol). […] At last, the mixtures were measured by Envision Readers (PerkinElmer). […]

B16-OVA tumor cells = experiment: B16-OVA tumor cell proliferation in vitro; format: cell-based, mouse; details: 5×10^4 B16-OVA cells, various doses, 12 hours
Protocol: In a further experiment, tumor cells were treated with SAA in vitro. Briefly, 5×10^4 B16-OVA tumor cells were treated with SAA of various doses respectively in a 96-well plate. Cell number was counted 12 hours after said SAA treatment.

B16-OVA tumor [1] = experiment: B16-OVA tumor growth in Rag1-/- versus wild-type mice; format: in vivo, mouse; details: 1×10^5 B16-OVA, 10 μM SAA day 7 to day 9
Protocol: (§1) For B6 mice tumor growth, 5×10^5 B16-OVA or 1×10^6 E.G7-OVA tumor cells were inoculated subcutaneously (s.c.) into the flank of mice. Tumor length (a) and width (b) was measured every two days and tumor volume was calculated by the formula ab^2/2. For the inhibitor treatment, 10 μM SAA or DMSO was injected intraperitoneally (i.p.) on day 9 and 11 after tumor inoculation. For other mice model (rag1^−/− and Ythdf1 conditional knockout), times and dose of inhibitor treatment was the same. For α-PD-L1 and SAA combination treatment, 5×10^5 B16-OVA tumor cells were inoculated subcutaneously into the flank of mice. 100 μg α-PD-L1 antibody (clone 10F.9G2) or rat immunoglobulin were administered at day 9 after tumor inoculation. 10 μM SAA or DMSO was administered in the same way on day 9 and 11 after tumor injection.
T/B cell-deficient Rag1^−/− mice were inoculated with 1×10^5 B16-OVA cells, and 10 μM SAA was then injected to each mouse from day 7 to day 9, and tumor growth was monitored, wild type mice were used as control group.

B16-OVA tumor [2] = experiment: B16-OVA tumor growth in Ythdf1F/F and CD11ccreYthdf1F/F mice; format: in vivo, mouse; details: 2×10^6 B16-OVA, 10 μM SAA day 9 and day 11
Protocol: as §1
To determine whether DCs are the major targets of SAA, Ythdf1^F/F and CD11c^creYthdf1^F/F mice were injected subcutaneously with 2×10^6 B16-OVA cells. Then, 10 μM SAA was injected to each mouse on day 9 and day 11, and tumor growth was monitored.

B16-OVA tumor [3] = experiment: B16-OVA tumor growth, SAA with anti-PD-L1 antibody; format: in vivo, mouse; details: 5×10^5 B16-OVA; 10 μM SAA day 9 and 11; 100 ug anti-PD-L1 antibody day 9
Protocol: as §1
Wild-type mice were injected subcutaneously with 5×10^5 B16-OVA cells. 10 μM SAA was injected to each mouse on day 9 and day 11. Mice were also treated with 100 ug anti-PD-L1 antibody on day 9. Tumor growth was monitored over time.

T2 sequence (Q9BYJ9 with tags, fused parts or gaps N378A): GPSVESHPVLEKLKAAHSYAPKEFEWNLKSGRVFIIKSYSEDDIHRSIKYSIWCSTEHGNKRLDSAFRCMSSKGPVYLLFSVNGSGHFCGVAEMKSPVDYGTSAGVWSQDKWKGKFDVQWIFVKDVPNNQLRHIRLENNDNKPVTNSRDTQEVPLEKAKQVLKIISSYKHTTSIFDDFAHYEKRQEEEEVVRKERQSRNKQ

inhibitory activity against YTHDF1 with competitor (His-YTHDF1 (361-559); 50 nM, 100 nM, 200 nM or 400 nM non-biotinylated m6A-containing mRNA preincubated with YTHDF1): remained unchanged
IC50 (His-YTHDF1 (361-559); absence of non-biotinylated m6A-containing mRNA, 200 nM YTHDF1, 20 nM biotinylated mRNA, read-out: inhibitory activity against YTHDF1): 0.8 ± 0.08 µM
Structure (SMILES): O=C(/C=C/c1ccc(O)c(O)c1/C=C/c1ccc(O)c(O)c1)O[C@H](Cc1ccc(O)c(O)c1)C(=O)O [SAA, Salvianolic Acid A]
inhibitory activity against mutant binding to m6A versus wildtype (YTHDF1 mutant N378A): significantly weaker than that against wildtype YTHDF1
proliferation of tumor cells (cell number) (B16-OVA tumor cells): not affected
tumor growth (B16-OVA tumor [1]): tumor growth was arrested
tumor growth (B16-OVA tumor [2]; CD11ccreYthdf1F/F mice): no further evident effect of tumor control
tumor growth (B16-OVA tumor [2]; Ythdf1F/F mice): showed analogous situation as observed in CD11c^creYthdf1^F/F mice
B16-OVA tumor growth (B16-OVA tumor [3]): partially inhibit

Source: US20240033244A1, “COMPOSITIONS AND METHODS FOR INHIBITING YTHDF1” (SHANGHAI INSTITUTE OF MATERIA MEDICA, CHINESE ACADEMY OF …, priority 2020, published 2024)
